From patent publication US11072616B2, “Cyclic peptides targeting alpha-4-beta-7 integrin” (Zealand Pharma A/S, priority 2015, dated 2021)

Key:
Aqueous solubility assay = type: physicochemical; conditions: PBS pH 7.4, 4 h, room temperature; for Determined concentration Mean: mean of 3, maximal concentration evaluated 200, 500 or 1000 μM; for Determined concentration Rep 1: replicate 1; for Determined concentration Rep 2: replicate 2; for Determined concentration Rep 3: replicate 3
Experimental: Solutions were incubated for four hours at room temperature and stirred at 600 rpm and run in triplicate. Centrifugation was performed for 15 minutes at 6000 rpm and solution concentration was determined using HPLC-UV (photodiode array detector acquiring between 220 nm, and 300 nm wavelengths).

integrin α4β7 = molecular target: T1, integrin α4β7 (Homo sapiens, UniProt P13612+P26010); assay: Integrin α4β7—MAdCAM-1 competition assay (ELISA); type: binding; conditions: ratio a4b1 ELISA IC50 / a4b7 ELISA IC50
T1 sequence (P13612 34-977 limits assumed): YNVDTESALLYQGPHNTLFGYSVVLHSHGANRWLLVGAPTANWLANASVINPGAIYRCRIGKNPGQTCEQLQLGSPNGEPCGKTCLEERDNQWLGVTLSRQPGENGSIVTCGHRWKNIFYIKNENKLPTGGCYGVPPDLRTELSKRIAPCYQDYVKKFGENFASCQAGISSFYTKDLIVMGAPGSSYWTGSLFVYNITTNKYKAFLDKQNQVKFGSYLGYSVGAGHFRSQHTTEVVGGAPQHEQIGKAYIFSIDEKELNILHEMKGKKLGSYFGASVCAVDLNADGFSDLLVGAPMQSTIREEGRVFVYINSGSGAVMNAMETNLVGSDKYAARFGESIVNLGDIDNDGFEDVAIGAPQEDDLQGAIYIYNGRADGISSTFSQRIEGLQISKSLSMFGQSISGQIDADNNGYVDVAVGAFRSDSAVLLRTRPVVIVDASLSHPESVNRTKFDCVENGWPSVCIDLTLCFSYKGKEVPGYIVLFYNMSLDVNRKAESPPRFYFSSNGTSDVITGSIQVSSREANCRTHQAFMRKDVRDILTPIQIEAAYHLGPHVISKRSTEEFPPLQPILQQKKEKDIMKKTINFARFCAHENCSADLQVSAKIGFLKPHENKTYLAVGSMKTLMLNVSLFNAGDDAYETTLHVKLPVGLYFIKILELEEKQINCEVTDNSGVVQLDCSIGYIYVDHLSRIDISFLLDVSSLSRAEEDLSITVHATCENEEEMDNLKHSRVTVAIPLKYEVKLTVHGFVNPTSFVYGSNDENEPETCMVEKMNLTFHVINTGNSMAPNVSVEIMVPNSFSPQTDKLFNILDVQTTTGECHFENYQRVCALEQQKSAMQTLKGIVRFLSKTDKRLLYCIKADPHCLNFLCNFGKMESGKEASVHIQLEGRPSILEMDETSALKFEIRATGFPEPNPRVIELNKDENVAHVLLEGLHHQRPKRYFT
T1 sequence (P26010 20-723 limits assumed): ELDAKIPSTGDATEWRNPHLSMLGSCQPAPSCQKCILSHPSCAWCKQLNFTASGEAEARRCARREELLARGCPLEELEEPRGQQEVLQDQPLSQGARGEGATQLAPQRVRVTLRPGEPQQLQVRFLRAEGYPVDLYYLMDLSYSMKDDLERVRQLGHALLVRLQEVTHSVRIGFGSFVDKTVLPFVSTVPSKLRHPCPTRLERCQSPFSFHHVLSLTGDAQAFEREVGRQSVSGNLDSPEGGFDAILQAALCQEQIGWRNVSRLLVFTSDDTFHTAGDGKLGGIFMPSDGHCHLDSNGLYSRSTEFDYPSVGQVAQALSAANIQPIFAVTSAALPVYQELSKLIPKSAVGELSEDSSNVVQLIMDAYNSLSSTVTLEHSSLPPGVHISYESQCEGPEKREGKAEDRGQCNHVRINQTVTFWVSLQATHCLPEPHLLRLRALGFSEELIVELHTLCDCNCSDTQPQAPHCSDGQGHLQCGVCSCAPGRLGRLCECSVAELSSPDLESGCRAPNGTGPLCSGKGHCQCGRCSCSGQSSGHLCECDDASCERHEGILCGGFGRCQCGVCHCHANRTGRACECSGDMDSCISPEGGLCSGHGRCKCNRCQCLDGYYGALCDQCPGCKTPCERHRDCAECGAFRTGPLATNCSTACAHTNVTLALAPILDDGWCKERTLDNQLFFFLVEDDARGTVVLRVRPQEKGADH
Method in brief: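 Competitive ELISA in which serially diluted compound was incubated with the receptor system for 2 h at room temperature to equilibrium. Wash buffer contained 1 mM MnCl2. Bound Fc-tagged partner was detected with anti-human IgG Fc-HRP and TMB.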

Compound	Determined concentration Mean (Aqueous solubility assay)	Determined concentration Rep 1 (Aqueous solubility assay)	Determined concentration Rep 2 (Aqueous solubility assay)	Determined concentration Rep 3 (Aqueous solubility assay)	Selectivity ELISA (integrin α4β7)
CC(C)C[C@@H]1NC(=O)[C@H](Cc2ccc(O)cc2)NC(=O)[C@H](C)NC(=O)[C@@H]2CCCN2[C@H](C(=O)NC(C)(C)C)[C@H](C)NC(=O)[C@H]([C@@H](C)O)NC(=O)[C@H](CC(=O)O)NC1=O [UM0134830-01]	1000.0 µM	1012.0 µM	1016.4 µM	971.7 µM	–
CC(C)C[C@@H]1NC(=O)[C@@H](Cc2ccc(O)cc2)NC(=O)[C@@H]2CCCN2[C@H](C(=O)NC(C)(C)C)[C@H](C)NC(=O)[C@H]([C@@H](C)O)NC(=O)[C@H](CC(=O)O)NC1=O [UM0132375-02]	954.5 µM	966.6 µM	960.0 µM	936.8 µM	–
CC(C)C[C@@H]1NC(=O)c2cccc(c2)CNC(=O)[C@@H]2CCCN2[C@H](C(=O)NC(C)(C)C)[C@H](C)NC(=O)[C@H]([C@@H](C)O)NC(=O)[C@H](CC(=O)O)NC1=O [UM0134690-01]	942.9 µM	957.3 µM	950.5 µM	920.8 µM	8.7
CC(C)C[C@@H]1NC(=O)[C@H](Cc2ccc(O)cc2)NC(=O)[C@@H]2CCCN2[C@H](C(=O)NC(C)(C)C)[C@H](C)NC(=O)[C@H]([C@@H](C)O)NC(=O)[C@H](CC(=O)O)NC1=O [UM0131995-05]	898.5 µM	883.9 µM	897.3 µM	914.7 µM	–
CC(C)C[C@@H]1NC(=O)[C@H](CCCCN)NC(=O)[C@@H]2CCCN2[C@H](C(=O)NC(C)(C)C)[C@H](C)NC(=O)[C@H]([C@@H](C)O)NC(=O)[C@H](CC(=O)O)NC1=O [UM0132376-01]	962.9 µM	990.7 µM	958.6 µM	939.5 µM	–
CC(C)C[C@@H]1NC(=O)C2(Cc3ccccc3C2)NC(=O)[C@@H]2CCCN2[C@H](C(=O)NC(C)(C)C)[C@H](C)NC(=O)[C@H]([C@@H](C)O)NC(=O)[C@H](CC(=O)O)NC1=O [UM0132369-01]	882.5 µM	874.4 µM	885.9 µM	887.3 µM	14.4
CC(C)C[C@@H]1NC(=O)[C@@H]2CCCN2C(=O)[C@@H]2CCCN2[C@H](C(=O)NC(C)(C)C)[C@H](C)NC(=O)[C@H]([C@@H](C)O)NC(=O)[C@H](CC(=O)O)NC1=O [UM0132366-01]	467.8 µM	474.2 µM	477.4 µM	451.9 µM	–
CC(C)C[C@@H]1NC(=O)CNC(=O)[C@H](Cc2ccc(O)cc2)NC(=O)[C@@H]2CCCN2[C@H](C(=O)NC(C)(C)C)[C@H](C)NC(=O)[C@H]([C@@H](C)O)NC(=O)[C@H](CC(=O)O)NC1=O [UM0134677-01]	224.6 µM	225.4 µM	230.6 µM	217.8 µM	–
CC(C)C[C@@H]1NC(=O)[C@@H](Cc2ccncc2)NC(=O)[C@@H]2CCCN2[C@H](C(=O)NC(C)(C)C)[C@H](C)NC(=O)[C@H]([C@@H](C)O)NC(=O)[C@H](CC(=O)O)NC1=O [UM0134700-01]	994.5 µM	1044.8 µM	933.2 µM	950.6 µM	–
CC(C)C[C@@H]1NC(=O)[C@H](Cc2cscn2)NC(=O)[C@@H]2CCCN2[C@H](C(=O)NC(C)(C)C)[C@H](C)NC(=O)[C@H]([C@@H](C)O)NC(=O)[C@H](CC(=O)O)NC1=O [UM0132370-01]	183.2 µM	187.0 µM	182.4 µM	180.2 µM	–
C=CCOc1ccc(C[C@@H]2NC(=O)[C@@H]3CCCN3[C@H](C(=O)NC(C)(C)C)[C@H](C)NC(=O)[C@H]([C@@H](C)O)NC(=O)[C@H](CC(=O)O)NC(=O)[C@H](CC(C)C)NC2=O)cc1 [UM0132371-01]	834.5 µM	786.7 µM	837.3 µM	879.6 µM	–
CC(C)C[C@@H]1NC(=O)C2(CCCC2)NC(=O)[C@@H]2CCCN2[C@H](C(=O)NC(C)(C)C)[C@H](C)NC(=O)[C@H]([C@@H](C)O)NC(=O)[C@H](CC(=O)O)NC1=O [UM0132368-01]	926.3 µM	926.3 µM	917.9 µM	934.3 µM	14.9
CC(C)C[C@@H]1NC(=O)[C@H](CCCN)NC(=O)[C@@H]2CCCN2[C@H](C(=O)NC(C)(C)C)[C@H](C)NC(=O)[C@H]([C@@H](C)O)NC(=O)[C@H](CC(=O)O)NC1=O [UM0132377-01]	218.6 µM	225.7 µM	218.9 µM	211.2 µM	–
CC(C)C[C@@H]1NC(=O)[C@H](Cc2cccc3ccccc23)NC(=O)[C@@H]2CCCN2[C@H](C(=O)NC(C)(C)C)[C@H](C)NC(=O)[C@H]([C@@H](C)O)NC(=O)[C@H](CC(=O)O)NC1=O [Compound 9]	–	–	–	–	1.7
CC(C)C[C@@H]1NC(=O)[C@H](CC2CCCCC2)NC(=O)[C@@H]2CCCN2[C@H](C(=O)NC(C)(C)C)[C@H](C)NC(=O)[C@H]([C@@H](C)O)NC(=O)[C@H](CC(=O)O)NC1=O [Compound 7]	–	–	–	–	1.6
CC(C)C[C@@H]1NC(=O)c2ccc(-c3cccc4ncccc34)c(c2)CNC(=O)[C@@H]2CCCN2[C@H](C(=O)NC(C)(C)C)[C@H](C)NC(=O)[C@H]([C@@H](C)O)NC(=O)[C@H](CC(=O)O)NC1=O [Compound 347]	–	–	–	–	1.3
CC(C)C[C@@H]1NC(=O)CN(C)C(=O)[C@H](Cc2ccc(I)cc2)NC(=O)[C@@H]2CCCN2[C@H](C(=O)NC(C)(C)C)[C@H](C)NC(=O)[C@H]([C@@H](C)O)NC(=O)[C@H](CC(=O)O)NC1=O [Compound 107]	–	–	–	–	16.0
CSCC[C@@H]1NC(=O)[C@@H]2CCCN2[C@H](C(=O)NC(C)(C)C)[C@H](C)NC(=O)[C@H]([C@@H](C)O)NC(=O)[C@H](CC(=O)O)NC(=O)[C@H](CC(C)C)NC1=O [UM0132374-01]	183.1 µM	179.4 µM	184.0 µM	185.9 µM	–
CC(C)C[C@@H]1NC(=O)c2ccc(-c3ccccc3N3CCNCC3)c(c2)CNC(=O)[C@@H]2CCCN2[C@H](C(=O)NC(C)(C)C)[C@H](C)NC(=O)[C@H]([C@@H](C)O)NC(=O)[C@H](CC(=O)O)NC1=O [Compound 348]	–	–	–	–	1.5
CCO[C@H](C)[C@@H]1NC(=O)[C@H](CC(=O)O)NC(=O)[C@H](CC(C)C)NC(=O)[C@H](Cc2ccccc2)NC(=O)[C@@H]2CCCN2[C@H](C(=O)NC(C)(C)C)[C@H](C)NC1=O [Compound 41]	–	–	–	–	2.5
